Experimental findings from patent US20230303486A1, “CYCLOBUTYL-UREA DERIVATIVES” (Idorsia Pharmaceuticals Ltd, priority 2020, published 2023) are described below.

One may read the IC50 as the midpoint of a concentration-inhibition curve.

This assay concerns primary neuronal cultures from embryonic rat brains. The assay can be described thus: Rat oscillation assay (FLIPR, neuronal calcium oscillations). In kind it is cell-based. The following applies: Rattus norvegicus. The procedure:
This assay is a functional phenotypic assay designed to mimic epileptic seizures using primary neuronal cultures from embryonic rat brains, which form a functional neuronal network that generate synchronized intracellular calcium concentration oscillations when cultured at high density in 384-well plate. The epileptic phenotype is induced by incubating the neurons in magnesium-free assay buffer, that results in increased probability of NMDA receptor activation, leading to an increased frequency and amplitude of intracellular calcium oscillations. Once neurons are incubated with the calcium indicator dye Fluo-8 AM (Tebu-bio), neuronal calcium oscillations can be monitored in real time using FLIPR® Tetra (fluorometric plate reader, Molecular Devices). With these recordings, the effect of anti-epileptic drugs can be quantified. The anti-epileptic effect of compounds, which activate directly or indirectly the Kv7 channels can be modulated by the Kv7 channel blocker XE-991. The assay was performed as described previously (Pacico N, Mingorance-Le Meur A. New In Vitro Phenotypic Assay for Epilepsy: Fluorescent Measurement of Synchronized Neuronal Calcium Oscillations. PLoS ONE 9(1) 2014) with modifications described hereafter.
Animal care followed standard procedures in accordance with swiss institutional guidelines. Dissociated neuronal cultures were obtained from cerebral cortices of embryonic Wistar rats at embryonic stage E18 (Charles River). The uterine horns were removed by caesarian surgery from deeply anesthetized rats (Isofurane) and sacrificed by decapitation. The embryos were decapitated by closing forceps. The brains were isolated and dissected one by one in ice-cold PBS (Life Technologies) under optical control using a binocular. Meninges, olfactory bulbs, and basal ganglia were removed. Cortical hemispheres (still including the hippocampus) were cut in small pieces with tweezers and placed on ice in prechilled Hibernate-E medium (Life technology). The hemispheres were then incubated in 10 mL of Hibernate-E containing 15 U/mL papain (Worthington) for 25 min at 30° C. with gentle mixing every 10 min. Genomic DNA was then digested by prolonging the incubation during 10 min at 37° C. in presence of 4 U/mL rDNase I (Ambion). The obtained suspension was then centrifuged at 800 g for 5 min and the cell pellet was resuspended in 2 mL Hibernate-E and gently dissociated by pipetting up and down 10 times with a plastic Pasteur pipette resulting in a homogenous cell suspension. This suspension was immediately filtered through a 70 µm cell strainer (MACS® SmartStrainer, Miltenyi), collected in 10 mL Hibernate-E and centrifuged at 800 g for 5 min. The cell pellet was resuspended in Neurobasal medium, supplemented with 2% B-27, 0.5 mM Glutamax-I, 100 U/mL penicillin, 100 µg/mL streptomycin (Life Technologies) and diluted at the final concentration of 300′000 cells/mL. One day before plating the cells, 384-well plates were coated with 25 µL/well of 0.1 % poly-L-lysine solution (Sigma), incubated overnight at 37° C., washed two times with sterile distilled water and allowed to dry at room temperature for >2 h. The neurons were seeded at a density of 15′000 cells/well in 50 µL/well in a 384-well black, clear-bottomed plates (Corning) and subsequently maintained in an incubator at 37° C., 5% CO2 and 95% humidity for 8 to 10 days. After 3 and 7 days, 40% of media was renewed under sterile conditions.
Neurons seeded in the assay plates were washed with Hank’s balanced salt solution (HBSS) devoid of Ca^2+ and Mg^2+, supplemented with 20 mM HEPES (Life Technologies) and 2 mM CaCl2 (Sigma), pH 7.4 (hereafter called Assay buffer) using a Biotek EL406 plate washer. Neurons were loaded with 1 µM Fluo-8 AM in Assay buffer for 15 min at 37° C., 5% CO2. […]

Where [1] appears, read: 20 min, 20 min after compound addition, AUC of fluorescence, read-out: FLIPR: IC50 [nM] 20 min.
The mark [2] stands for this setting: Cortical neurone, acute phase, ratio of AUC fluorescence before and after compound addition, rat cortical neurons, Mg-free buffer, read-out: FLIPR: IC50 [nM] acute.

Where two headings read alike, the source gives them in different places.

On to `COCC(NC(=O)NC12CC(C(F)F)(C1)C2)c1cccc(C(F)(F)F)c1` (centres unmarked) [Example 14, 1-(3-Difluoromethyl-bicyclo[1.1.1]pent-1-yl)-3-[2-methoxy-1-(3-trifluoromethyl-phenyl)-ethyl]-urea], for which the IC50 stood at 79 nM under setting [1] and 37 nM under setting [2].
In the case of `O=C(NCc1cccc(C(F)(F)F)c1F)NC12CC(C(F)F)(C1)C2` [Example 15, 1-(3-Difluoromethyl-bicyclo[1.1.1]pent-1-yl)-3-(2-fluoro-3-trifluoromethyl-benzyl)-urea], the IC50 was found to be 960 nM under setting [1] and 619 nM under setting [2].
The corresponding values for `O=C(NCc1cc(F)cc(C(F)(F)F)c1)NC12CC(C(F)F)(C1)C2` [Example 16, 1-(3-Difluoromethyl-bicyclo[1.1.1]pent-1-yl)-3-(3-fluoro-5-trifluoromethyl-benzyl)-urea] are 848 nM and 716 nM.
The corresponding values for `O=C(NCc1cccc(OCC(F)(F)F)c1)NC12CC(F)(C1)C2` [Example 17, 1-(3-Fluoro-Bicyclo[1.1.1]Pent-1-yl)-3-[3-(2,2,2-Trifluoro-Ethoxy)-Benzyl]-Urea] are 239 nM and 202 nM.
Consider `O=C(NCc1cccc(OCC(F)(F)F)c1)NC1CC(C(F)F)C1` (centres unmarked) [Example 18, 1-(3-Difluoromethyl-cyclobutyl)-3-[3-(2,2,2-trifluoro-ethoxy)-benzyl]-urea], for which the IC50 turned out to be 1080 nM under setting [1] and 377 nM under setting [2].
The corresponding values for `O=C(NCc1cccc(OCC(F)(F)F)c1)NC12CC(C(F)(F)F)(C1)C2` [Example 19, 1-[3-(2,2,2-Trifluoro-ethoxy)-benzyl]-3-(3-trifluoromethyl-bicyclo[1.1.1]pent-1-yl)-urea] are 111 nM and 50 nM.
The corresponding values for `O=C(NCc1cccc(OC(F)F)c1)NC12CC(F)(C1)C2` [Example 20, 1-(3-Difluoromethoxy-Benzyl)-3-(3-Fluoro-Bicyclo[1.1.1]Pent-1-yl)-Urea] are 467 nM and 566 nM.
The corresponding values for `O=C(NCc1cccc(OC(F)F)c1)NC1CC(C(F)F)C1` (centres unmarked) [Example 21, 1-(3-Difluoromethoxy-benzyl)-3-(3-difluoromethyl-cyclobutyl)-urea] are 942 nM and 373 nM.
For `O=C(NCc1cccc(OC(F)F)c1)NC12CC(C(F)(F)F)(C1)C2` [Example 22, 1-(3-Difluoromethoxy-benzyl)-3-(3-trifluoromethyl-bicyclo[1.1.1]pent-1-yl)-urea], the IC50 by setting is: under setting [1], 311 nM; under setting [2], 134 nM.
Take `O=C(NCc1cccc(OC(F)(F)F)c1)NC1CC(C(F)F)C1` (centres unmarked) [Example 25, 1-(3-Difluoromethyl-cyclobutyl)-3-(3-trifluoromethoxy-benzyl)-urea]: the IC50 reads like this: under setting [1], 610 nM; under setting [2], 235 nM.
In the case of `O=C(NCc1cccc(OC(F)(F)F)c1)NC12CC(C1)C2` [Example 26, 1-Bicyclo[1.1.1]pent-1-yl-3-(3-trifluoromethoxy-benzyl)-urea], the IC50 under setting [1] came out at 315 nM and the IC50 under setting [2] turned out to be 295 nM.
As to `O=C(NCc1cccc(C(F)F)c1)NC1CC(C(F)F)C1` (centres unmarked) [Example 27, 1-(3-Difluoromethyl-Benzyl)-3-(3-Difluoromethyl-Cyclobutyl)-Urea], the IC50 was determined as 1730 nM under setting [1] and 1340 nM under setting [2].
Turning to `O=C(NCc1cccc(C(F)F)c1)NC12CC(C(F)(F)F)(C1)C2` [Example 28, 1-(3-Difluoromethyl-Benzyl)-3-(3-Trifluoromethyl-Bicyclo[1.1.1]Pent-1-yl)-urea], the IC50 reads like this: under setting [1], 203 nM; under setting [2], 117 nM.
Take `O=C(NCc1ccnc(OC(F)(F)F)c1)NC1CC(C(F)F)C1` (centres unmarked) [Example 29, 1-(3-Difluoromethyl-Cyclobutyl)-3-(2-Trifluoromethoxy-Pyridin-4-Ylmethyl)-Urea]: the IC50 is, setting by setting: under setting [1], 2150 nM; under setting [2], 367 nM.
In the case of `O=C(NCc1ccnc(OC(F)(F)F)c1)NC12CC(C(F)(F)F)(C1)C2` [Example 30, 1-(2-Trifluoromethoxy-Pyridin-4-Ylmethyl)-3-(3-Trifluoromethyl-Bicyclo[1.1.1]Pent-1-yl)-Urea], the IC50 was determined as 1480 nM under setting [1] and 804 nM under setting [2].
The corresponding values for `O=C(NCc1cccc(C(F)(F)F)c1)NC12CC(C1)C2` [Example 35, 1-Bicyclo[1.1.1]Pent-1-yl-3-(3-Trifluoromethyl-Benzyl)-Urea] are 717 nM and 231 nM.
The corresponding values for `O=C(NCc1cccc(C(F)(F)F)c1)NC12CC(F)(C1)C2` [Example 36, 1-(3-Fluoro-bicyclo[1.1.1]pent-1-yl)-3-(3-trifluoromethyl-benzyl)-urea] are 344 nM and 245 nM.
For `O=C(NCc1cccc(C(F)(F)F)c1)NC1CC(C(F)F)C1` (centres unmarked) [Example 38, 1-(3-Difluoromethyl-cyclobutyl)-3-(3-trifluoromethyl-benzyl)-urea], the IC50 runs as follows: under setting [1], 390 nM; under setting [2], 135 nM.
The corresponding values for `CC12CC(NC(=O)NCc3cccc(C(F)(F)F)c3)(C1)C2` [Example 39, 1-(3-Methyl-bicyclo[1.1.1]pent-1-yl)-3-(3-trifluoromethyl-benzyl)-urea] are 68 nM and 41 nM.
The corresponding values for `O=C(NCc1cccc(C(F)(F)F)c1)NC12CC(CF)(C1)C2` [Example 40, 1-(3-Fluoromethyl-bicyclo[1.1.1]pent-1-yl)-3-(3-trifluoromethyl-benzyl)-urea] are 248 nM and 149 nM.
The corresponding values for `O=C(NCc1cccc(C(F)(F)F)c1)NC1CC(C(F)(F)F)C1` (centres unmarked) [Example 41, 1-(3-Trifluoromethyl-benzyl)-3-(3-trifluoromethyl-cyclobutyl)-urea] are 117 nM and 73 nM.
On to `O=C(NCc1cccc(C(F)(F)F)c1)NC1CC(O)(C(F)(F)F)C1` (centres unmarked) [Example 42, 1-(3-Hydroxy-3-trifluoromethyl-cyclobutyl)-3-(3-trifluoromethyl-benzyl)-urea], for which the IC50 is 1920 nM under setting [1] and 1170 nM under setting [2].
The corresponding values for `O=C(NCc1ccnc(OCC(F)(F)F)c1)NC12CC(C1)C2` [Example 43, 1-Bicyclo[1.1.1]Pent-1-yl-3-[2-(2,2,2-Trifluoro-Ethoxy)-Pyridin-4-Ylmethyl]-Urea] are 967 nM and 578 nM.
The corresponding values for `O=C(NCc1ccnc(OCC(F)(F)F)c1)NC12CC(F)(C1)C2` [Example 44, 1-(3-Fluoro-bicyclo[1.1.1]pent-1-yl)-3-[2-(2,2,2-trifluoro-ethoxy)-pyridin-4-ylmethyl]-urea] are 1350 nM and 591 nM.
The corresponding values for `O=C(NCc1ccnc(OCC(F)(F)F)c1)NC12CC(C(F)(F)F)(C1)C2` [Example 45, 1-[2-(2,2,2-Trifluoro-ethoxy)-pyridin-4-ylmethyl]-3-(3-trifluoromethyl-bicyclo[1.1.1]pent-1-yl)-urea] are 701 nM and 131 nM.
For `O=C(NCc1ccnc(OCC(F)(F)F)c1)NC1CC(C(F)F)C1` (centres unmarked) [Example 46, 1-(3-Difluoromethyl-cyclobutyl)-3-[2-(2,2,2-trifluoro-ethoxy)-pyridin-4-ylmethyl]-urea], the IC50 is, setting by setting: under setting [1], 257 nM; under setting [2], 148 nM.
The corresponding values for `O=C(NCc1cccc(C(F)(F)F)c1)NC12CCC(C1)C2` [Example 48, 1-Bicyclo[2.1.1]Hex-1-yl-3-(3-Trifluoromethyl-Benzyl)-Urea] are 484 nM and 232 nM.
The corresponding values for `CC1(NC(=O)NCc2cccc(C(F)(F)F)c2)CC(F)(F)C1` [Example 49, 1-(3,3-Difluoro-1-Methyl-Cyclobutyl)-3-(3-Trifluoromethyl-Benzyl)-Urea] are 628 nM and 247 nM.
